From ChEMBL document CHEMBL5385916, “Discovery of a novel series of pyridone amides as NaV1.8 inhibitors” (Bioorg Med Chem Lett, 2024)
The source made the active and inactive calls. The rule behind the calls is not given here.

How the values were obtained:
[1] = Selectivity ratio of binding affinity to Nav1.8 (unknown origin) expressed in HEK293T cells assessed as retention time to binding affinity to Nav1.5 (unknown origin) expressed in HEK293T cells assessed as retention time; format: cell-based
[2] = molecular target: T1, Sodium channel protein type 10 subunit alpha (Homo sapiens, UniProt Q9Y5Y9); assay: Binding affinity to Nav1.8 (unknown origin) expressed in HEK293T cells assessed as retention time by cell membrane chromatography analysis; format: cell membranes
Target sequence in this assay (Q9Y5Y9 whole entry, looked up): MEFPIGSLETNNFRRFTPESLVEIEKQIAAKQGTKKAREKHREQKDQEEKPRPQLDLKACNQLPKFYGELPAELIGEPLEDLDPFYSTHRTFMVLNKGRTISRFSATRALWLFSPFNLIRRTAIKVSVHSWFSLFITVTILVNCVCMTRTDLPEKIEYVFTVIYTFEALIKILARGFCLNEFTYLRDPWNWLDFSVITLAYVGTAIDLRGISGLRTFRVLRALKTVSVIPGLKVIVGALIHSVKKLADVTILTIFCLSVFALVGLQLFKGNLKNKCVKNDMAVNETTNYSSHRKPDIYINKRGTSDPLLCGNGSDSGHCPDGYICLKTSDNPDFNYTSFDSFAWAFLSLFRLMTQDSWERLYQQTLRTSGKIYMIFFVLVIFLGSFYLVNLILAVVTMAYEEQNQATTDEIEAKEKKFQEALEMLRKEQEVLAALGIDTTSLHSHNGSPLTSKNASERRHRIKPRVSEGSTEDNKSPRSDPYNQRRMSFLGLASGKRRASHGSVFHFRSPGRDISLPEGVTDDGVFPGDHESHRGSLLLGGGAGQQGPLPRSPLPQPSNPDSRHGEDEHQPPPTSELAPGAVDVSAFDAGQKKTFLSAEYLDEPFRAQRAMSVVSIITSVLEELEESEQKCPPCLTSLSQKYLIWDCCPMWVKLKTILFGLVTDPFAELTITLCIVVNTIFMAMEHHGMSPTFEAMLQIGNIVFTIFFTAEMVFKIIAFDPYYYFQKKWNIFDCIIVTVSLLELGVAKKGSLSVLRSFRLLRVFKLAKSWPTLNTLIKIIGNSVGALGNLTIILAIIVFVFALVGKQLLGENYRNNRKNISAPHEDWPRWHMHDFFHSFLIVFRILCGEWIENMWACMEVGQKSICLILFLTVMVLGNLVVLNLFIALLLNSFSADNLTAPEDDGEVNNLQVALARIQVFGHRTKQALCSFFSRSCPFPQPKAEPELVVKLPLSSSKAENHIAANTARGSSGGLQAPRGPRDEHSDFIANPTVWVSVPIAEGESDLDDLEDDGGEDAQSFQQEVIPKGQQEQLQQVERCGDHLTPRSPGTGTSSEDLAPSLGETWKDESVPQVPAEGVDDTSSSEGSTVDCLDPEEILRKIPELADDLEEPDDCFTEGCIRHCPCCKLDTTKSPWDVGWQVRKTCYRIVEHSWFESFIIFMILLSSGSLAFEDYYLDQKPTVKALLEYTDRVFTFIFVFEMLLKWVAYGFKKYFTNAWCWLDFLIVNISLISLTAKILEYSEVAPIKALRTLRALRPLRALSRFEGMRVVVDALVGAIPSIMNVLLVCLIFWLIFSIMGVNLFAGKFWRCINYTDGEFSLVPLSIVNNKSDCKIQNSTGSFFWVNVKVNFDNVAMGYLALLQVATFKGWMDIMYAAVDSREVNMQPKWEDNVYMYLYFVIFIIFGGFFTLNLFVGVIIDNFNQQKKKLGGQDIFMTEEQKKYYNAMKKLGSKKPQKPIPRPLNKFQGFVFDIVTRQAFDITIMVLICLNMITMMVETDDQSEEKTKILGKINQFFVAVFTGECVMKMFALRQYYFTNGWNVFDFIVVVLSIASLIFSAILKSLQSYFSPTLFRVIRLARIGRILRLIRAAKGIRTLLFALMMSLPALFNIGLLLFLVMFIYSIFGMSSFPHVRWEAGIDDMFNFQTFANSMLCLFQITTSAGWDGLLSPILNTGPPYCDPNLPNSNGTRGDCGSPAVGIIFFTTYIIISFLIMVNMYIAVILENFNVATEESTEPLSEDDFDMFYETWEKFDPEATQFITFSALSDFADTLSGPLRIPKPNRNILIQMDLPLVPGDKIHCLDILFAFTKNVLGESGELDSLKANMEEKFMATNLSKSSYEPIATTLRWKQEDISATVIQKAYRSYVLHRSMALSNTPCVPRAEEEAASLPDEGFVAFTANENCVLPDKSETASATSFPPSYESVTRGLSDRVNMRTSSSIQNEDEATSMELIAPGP

[3] = molecular target: Sodium channel protein type 5 subunit alpha (Homo sapiens, UniProt Q14524); assay: Binding affinity to Nav1.5 (unknown origin) expressed in HEK293T cells assessed as retention time by cell membrane chromatography analysis; format: cell membranes
Chain of Sodium channel protein type 5 subunit alpha (Q14524 whole entry): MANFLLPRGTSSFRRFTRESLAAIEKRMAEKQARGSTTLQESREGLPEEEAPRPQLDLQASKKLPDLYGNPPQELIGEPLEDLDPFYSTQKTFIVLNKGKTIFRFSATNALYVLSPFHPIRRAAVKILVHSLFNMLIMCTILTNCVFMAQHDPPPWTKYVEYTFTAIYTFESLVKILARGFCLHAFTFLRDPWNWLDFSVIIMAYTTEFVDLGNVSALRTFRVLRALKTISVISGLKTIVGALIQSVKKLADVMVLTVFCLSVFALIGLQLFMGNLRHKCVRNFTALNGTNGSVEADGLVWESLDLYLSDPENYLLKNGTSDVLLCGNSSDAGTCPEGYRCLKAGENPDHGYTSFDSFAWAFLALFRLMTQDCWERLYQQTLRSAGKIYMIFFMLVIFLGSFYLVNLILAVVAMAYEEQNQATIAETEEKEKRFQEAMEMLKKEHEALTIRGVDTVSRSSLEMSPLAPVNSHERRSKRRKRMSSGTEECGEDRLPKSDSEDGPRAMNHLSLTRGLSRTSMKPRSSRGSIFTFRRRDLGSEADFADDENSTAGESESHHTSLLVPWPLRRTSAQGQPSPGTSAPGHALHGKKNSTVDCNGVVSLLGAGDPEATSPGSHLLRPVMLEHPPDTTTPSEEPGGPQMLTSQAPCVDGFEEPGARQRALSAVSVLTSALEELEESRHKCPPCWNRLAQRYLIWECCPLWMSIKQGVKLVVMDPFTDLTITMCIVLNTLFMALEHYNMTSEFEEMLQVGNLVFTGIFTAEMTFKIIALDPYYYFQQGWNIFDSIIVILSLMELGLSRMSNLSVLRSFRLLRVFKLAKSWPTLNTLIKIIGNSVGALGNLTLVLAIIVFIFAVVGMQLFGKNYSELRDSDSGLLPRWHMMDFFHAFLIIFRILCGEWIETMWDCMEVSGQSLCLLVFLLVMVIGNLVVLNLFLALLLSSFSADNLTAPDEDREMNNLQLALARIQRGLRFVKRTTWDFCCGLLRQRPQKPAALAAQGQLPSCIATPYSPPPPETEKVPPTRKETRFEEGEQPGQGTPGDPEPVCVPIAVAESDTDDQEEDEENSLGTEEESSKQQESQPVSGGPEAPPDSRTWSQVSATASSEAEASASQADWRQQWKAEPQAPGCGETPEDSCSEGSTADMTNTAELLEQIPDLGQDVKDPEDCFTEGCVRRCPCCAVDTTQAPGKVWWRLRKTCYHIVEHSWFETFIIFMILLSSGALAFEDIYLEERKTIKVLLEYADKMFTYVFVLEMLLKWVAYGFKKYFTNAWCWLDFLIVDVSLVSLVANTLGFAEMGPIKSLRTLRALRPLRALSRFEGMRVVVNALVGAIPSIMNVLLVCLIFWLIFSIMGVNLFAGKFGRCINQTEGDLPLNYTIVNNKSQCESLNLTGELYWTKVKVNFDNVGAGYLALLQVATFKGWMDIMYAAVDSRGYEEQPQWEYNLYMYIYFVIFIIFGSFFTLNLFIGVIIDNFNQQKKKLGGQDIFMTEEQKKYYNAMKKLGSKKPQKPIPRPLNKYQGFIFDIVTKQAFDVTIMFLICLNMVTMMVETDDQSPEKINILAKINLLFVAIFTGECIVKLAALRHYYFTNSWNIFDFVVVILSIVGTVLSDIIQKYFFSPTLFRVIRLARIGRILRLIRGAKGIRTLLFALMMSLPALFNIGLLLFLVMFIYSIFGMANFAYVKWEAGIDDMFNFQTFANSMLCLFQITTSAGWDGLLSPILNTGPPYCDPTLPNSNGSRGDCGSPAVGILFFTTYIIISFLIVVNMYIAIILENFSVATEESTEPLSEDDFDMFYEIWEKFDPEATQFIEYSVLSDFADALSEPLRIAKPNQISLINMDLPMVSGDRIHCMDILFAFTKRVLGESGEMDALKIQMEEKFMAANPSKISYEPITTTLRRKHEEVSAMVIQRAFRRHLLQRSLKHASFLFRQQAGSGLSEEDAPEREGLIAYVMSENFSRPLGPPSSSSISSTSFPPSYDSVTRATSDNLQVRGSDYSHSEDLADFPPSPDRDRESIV

[4] = molecular target: T1, Sodium channel protein type 10 subunit alpha; assay: Inhibition of Nav1.8 (unknown origin) at 10 uM under half inaction state by whole-cell patch clamp analysis relative to control
Target sequence in this assay (Q9Y5Y9 whole entry, looked up): as the sequence (Q9Y5Y9 whole entry, looked up) above

[5] = molecular target: T1, Sodium channel protein type 10 subunit alpha; assay: Inhibition of Nav1.8 (unknown origin) at 10 uM under resting state by whole-cell patch clamp analysis relative to control
Target sequence in this assay (Q9Y5Y9 whole entry, looked up): as above

Mus musculus [6] = assay: Analgesic activity in CFA-induced inflammatory pain mouse model assessed as paw withdrawal response to von frey stimuli at 100 microg/kg, ip; format: functional, organism-based; details: dose 100.0 µg/kg
[7] = molecular target: T1, Sodium channel protein type 10 subunit alpha; assay: Inhibition of Nav1.8 in HEK293 cells under half inaction state; format: cell-based
Mus musculus [8] = assay: Analgesic activity in chronic constriction injury mouse model assessed as fold increase in AUC at 100 microg/kg, ip administered for 8 days relative to model group; format: functional; details: dose 100 µg/kg, time 8 day
Mus musculus [9] = assay: Analgesic activity in CFA-induced inflammatory pain mouse model assessed as paw withdrawal response to von frey stimuli at 100 microg/kg, po administered for 8 days and measured upto 7 hrs; format: functional, organism-based; details: dose 100.0 µg/kg, time <= 199.0 hrs
Mus musculus [10] = assay: Analgesic activity in cold pain hypersensitivity mouse model at 100 microg/kg, ip measured for 8 days; format: functional, organism-based; details: dose 100.0 µg/kg, time 8.0 day
Mus musculus [11] = assay: Analgesic activity in chronic constriction injury mouse model assessed as paw withdrawal response to von frey stimuli at 100 microg/kg, ip administered for 8 days and measured upto 9 hrs; format: functional, organism-based; details: dose 100.0 µg/kg, time <= 201.0 hrs
[12] = Toxicity in mouse assessed as adverse effects at 100 microg/kg, ip administered for 8 days and measured upto 9 hrs; format: organism-based; details: in vivo, 0.1 mg/kg, 201 h, dose 100 µg/kg
Mus musculus [13] = assay: Analgesic activity in chronic constriction injury mouse model at 100 microg/kg, ip administered for 10 to 14 days; format: functional, organism-based; details: dose 100.0 µg/kg, time 10-14 day
Mus musculus [14] = assay: Analgesic activity in CFA-induced inflammatory pain mouse model assessed as paw withdrawal response to von frey stimuli at 100 microg/kg, ip measured for 5 hrs; format: functional, organism-based; details: dose 100.0 µg/kg
[15] = molecular target: T1, Sodium channel protein type 10 subunit alpha; assay: Inhibition of Nav1.8 in HEK293 cells under resting state; format: cell-based
Mus musculus [16] = assay: Analgesic activity in CFA-induced inflammatory pain mouse model assessed as paw withdrawal response to von frey stimuli at 100 microg/kg, ip measured for 9 hrs; format: functional, organism-based; details: dose 100.0 µg/kg

| Retention time [2] [min] | SMILES | Selectivity ratio [1] | Retention_time [3] [min] | Activity (Mus musculus [6]) | further results |
| --- | --- | --- | --- | --- | --- |
| > 60 | Cc1cc(F)ccc1Oc1cc(C(F)(F)F)ccc1C(=O)Nc1ccc2cc[nH]c2c1 | 1 | > 60 | Active | inhibition [4]: 1.55%; inhibition [5]: -0.26% |
| 4.6 | COc1cccc(NC(=O)c2ccc(C(F)(F)F)cc2Oc2ccc(F)cc2C)c1 | 0.63 | 7.3 | – | – |
| 36.5 | Cc1cc(F)ccc1Oc1cc(C(F)(F)F)ccc1C(=O)Nc1cccc(O)c1 | 5.14 | 7.1 | – | – |
| 30 | Cc1cc(F)ccc1Oc1cc(C(F)(F)F)ccc1C(=O)Nc1ccncc1 | 10 | 3 | Active | – |
| 5.8 | Cc1cc(F)ccc1Oc1cc(C(F)(F)F)ccc1C(=O)Nc1ccccc1 | 0.79 | 7.3 | – | – |
| 56.1 | Cc1cc(F)ccc1Oc1cc(C(F)(F)F)ccc1C(=O)NCc1ccccc1 | 0.94 | > 60 | – | – |

More lines, now with the values behind:

| SMILES | Retention time [2] [min] | Selectivity ratio [1] | Retention_time [3] [min] | Activity (Mus musculus [6]) | further results |
| --- | --- | --- | --- | --- | --- |
| O=C(Nc1cc[nH]c(=O)c1)c1ccc(C(F)(F)F)cc1OC1CC=CC1 | 10.1 | 0.61 | 16.4 | – | – |
| O=C(Nc1cc[nH]c(=O)c1)c1ccc(C(F)(F)F)cc1OC1CCC(F)(F)CC1 | 3.8 | 0.66 | 5.8 | – | – |
| O=C(Nc1cc[nH]c(=O)c1)c1ccc(C(F)(F)F)cc1Oc1ccccc1 | 4.7 | 0.55 | 8.6 | – | – |
| O=C(Nc1cc[nH]c(=O)c1)c1ccc(C(F)(F)F)cc1N1CCC(C(F)(F)F)CC1 | 10.5 | 0.9 | 11.7 | Active | IC50 [7]: 472 nM; inhibition ([7]; dose 0.1-10 µM): Dose-Dependent Effect; fold change (FC) (Mus musculus [8]): 2; Activity (Mus musculus [9]): Active; Activity (Mus musculus [10]): Active; Activity (Mus musculus [11]): Active; inhibition [4]: 92.2%; Activity [12]: Non-Toxic; inhibition [5]: 93.4%; Activity (Mus musculus [13]): Active; Activity (Mus musculus [14]): Active; IC50 [15]: 513 nM; inhibition ([15]; dose 0.1-10 µM): Dose-Dependent Effect; Activity (Mus musculus [16]): Active |
| COc1cc(NC(=O)c2ccc(C(F)(F)F)cc2Oc2ccc(F)cc2C)ccn1 | 6.1 | 0.34 | 17.8 | – | – |
| Cc1cc(F)ccc1Oc1cc([N+](=O)[O-])ccc1C(=O)Nc1cc[nH]c(=O)c1 | 4.5 | 0.52 | 4.5 | – | – |
| Cc1cc(F)ccc1Oc1cc(C(F)(F)F)ccc1C(=O)NCc1cc[nH]c(=O)c1 | 6 | 0.66 | 9.1 | – | – |
| COc1cc(NC(=O)c2ccc([N+](=O)[O-])cc2Oc2ccc(F)cc2C)ccn1 | 4.6 | 0.62 | 4.6 | – | – |
| Cc1cc(F)ccc1Oc1cc(C(F)(F)F)ccc1C(=O)Nc1cc[nH]c(=O)c1 | 11.8 | 0.57 | 20.6 | – | – |
| O=C(Nc1cc[nH]c(=O)c1)c1ccc(C(F)(F)F)cc1Sc1ccc(F)cc1 | 9.2 | 0.57 | 16.1 | Active | inhibition [4]: 88.8%; inhibition [5]: 87.5%; Activity (Mus musculus [14]): Active; Activity (Mus musculus [16]): Active |
| O=C(Nc1cc[nH]c(=O)c1)c1ccc(C(F)(F)F)cc1Oc1ccc(F)nc1 | 2.4 | 0.92 | 2.6 | – | – |
| O=C(Nc1cc[nH]c(=O)c1)c1ccc(C(F)(F)F)cc1Oc1ccncc1 | 1.6 | 0.94 | 1.7 | – | – |
| COc1cc(NC(=O)c2ncc(C(F)(F)F)cc2Oc2ccc(F)cc2C)ccn1 | 22 | 1.79 | 12.3 | Active | inhibition [4]: 84.5%; inhibition [5]: 82.5%; Activity (Mus musculus [14]): Active; Activity (Mus musculus [16]): Active |
| CN1CCN(c2cc(C(F)(F)F)ccc2C(=O)Nc2cc[nH]c(=O)c2)CC1 | 53.8 | 41.4 | 1.3 | Active | – |
